In paper PMC7004565, “Nucleotide inhibition of the pancreatic ATP-sensitive K^+ channel explored with patch-clamp fluorometry” (eLife, 2020):
Several values for one entry are separate records, joined by “and”; a condition that tells them apart may be missing. Equal values may be shown once.

Legend:
Kir6.2-GFP (no SUR1) = molecular target: T1, Kir6.2-GFP (no SUR1) (Homo sapiens, UniProt Q14654); assay: Current inhibition in excised inside-out patches; assay type: biochemical; details: excised inside-out patches, no SUR1, Mg2+-free, Hill fit
T1 construct: ANAP labelling is specific and only full-length Kir6.2 is expressed at the cell membrane; expressed in transfected cells; host or cells: HEK-293T
T1 sequence (Q14654 1-390): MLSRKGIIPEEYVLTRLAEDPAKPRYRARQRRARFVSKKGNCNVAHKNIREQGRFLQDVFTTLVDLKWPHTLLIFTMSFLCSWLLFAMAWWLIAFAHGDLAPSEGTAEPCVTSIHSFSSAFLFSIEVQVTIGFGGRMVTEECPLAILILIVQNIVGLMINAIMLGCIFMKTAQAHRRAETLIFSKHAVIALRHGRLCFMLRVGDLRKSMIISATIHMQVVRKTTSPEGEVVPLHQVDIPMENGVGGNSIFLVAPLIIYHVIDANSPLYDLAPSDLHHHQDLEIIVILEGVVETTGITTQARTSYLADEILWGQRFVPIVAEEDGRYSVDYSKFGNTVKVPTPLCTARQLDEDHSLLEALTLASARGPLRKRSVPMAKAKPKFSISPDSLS
Procedure: Currents were measured from patches from cells expressing KATP that were excised in the absence of Mg^2+. Under such conditions, nucleotides can bind to both sites on SUR1, but no activation occurs, allowing inhibitory currents to be measured in isolation ([Gribble et al., 1998]; [Ueda et al., 1999]; [Puljung et al., 2019]).

Kir6.2*-GFP + SUR-K205A = molecular target: T2, Kir6.2*-GFP + SUR-K205A (Homo sapiens, UniProt Q14654); assay: ANAP fluorescence quenching in excised patches (patch-clamp fluorometry); assay type: binding; details: excised patches (PCF), Hill fit
T2 construct: ANAP labelling is specific and only full-length Kir6.2 is expressed at the cell membrane; expressed in transfected cells; host or cells: HEK-293T
Source text: (§1) We introduced a charge neutralization (alanine, K205A) and a charge reversal (glutamate, K205E) mutation at this position and measured simultaneous nucleotide binding and current inhibition with PCF (Figure 4B,C,D). The binding and inhibition curves for TNP-ATP almost perfectly overlaid for the SUR1-K205A mutant (Figure 4C). The same was also true for SUR1-K205E (Figure 4D). Data were fit with the MWC-type model as before. […] This was reflected by a decrease in the estimated KA for TNP-ATP, which correlated with the degree of conservation of the mutation, that is we observed a larger effect for the charge reversal compared to the charge neutralization mutation (Figure 4E). However, in addition to direct effects of K205 on nucleotide binding, we also observed a shift in D for both mutations (Figure 4E).
(§2) Currents were measured as described above.
(§3) ANAP bleaching was corrected as for the unroofed binding experiments with Equation 1 (Figure 2—figure supplement 3A). Due to the lower signal-to-noise ratio for PCF compared to the unroofed membranes, we performed experiments from both high-to-low and low-to-high TNP-ATP concentrations to minimise artifacts from our bleaching corrections.

Kir6.2*-GFP + SUR-K205E = molecular target: T3, Kir6.2*-GFP + SUR-K205E (Homo sapiens, UniProt Q14654); assay: as above; assay type: binding; details: excised patches (PCF), Hill fit
T3 construct: ANAP labelling is specific and only full-length Kir6.2 is expressed at the cell membrane; expressed in transfected cells; host or cells: HEK-293T
Source text: as §1, §2, §3

T2 sequence (Q09428 whole entry K205A partner, one chain of several): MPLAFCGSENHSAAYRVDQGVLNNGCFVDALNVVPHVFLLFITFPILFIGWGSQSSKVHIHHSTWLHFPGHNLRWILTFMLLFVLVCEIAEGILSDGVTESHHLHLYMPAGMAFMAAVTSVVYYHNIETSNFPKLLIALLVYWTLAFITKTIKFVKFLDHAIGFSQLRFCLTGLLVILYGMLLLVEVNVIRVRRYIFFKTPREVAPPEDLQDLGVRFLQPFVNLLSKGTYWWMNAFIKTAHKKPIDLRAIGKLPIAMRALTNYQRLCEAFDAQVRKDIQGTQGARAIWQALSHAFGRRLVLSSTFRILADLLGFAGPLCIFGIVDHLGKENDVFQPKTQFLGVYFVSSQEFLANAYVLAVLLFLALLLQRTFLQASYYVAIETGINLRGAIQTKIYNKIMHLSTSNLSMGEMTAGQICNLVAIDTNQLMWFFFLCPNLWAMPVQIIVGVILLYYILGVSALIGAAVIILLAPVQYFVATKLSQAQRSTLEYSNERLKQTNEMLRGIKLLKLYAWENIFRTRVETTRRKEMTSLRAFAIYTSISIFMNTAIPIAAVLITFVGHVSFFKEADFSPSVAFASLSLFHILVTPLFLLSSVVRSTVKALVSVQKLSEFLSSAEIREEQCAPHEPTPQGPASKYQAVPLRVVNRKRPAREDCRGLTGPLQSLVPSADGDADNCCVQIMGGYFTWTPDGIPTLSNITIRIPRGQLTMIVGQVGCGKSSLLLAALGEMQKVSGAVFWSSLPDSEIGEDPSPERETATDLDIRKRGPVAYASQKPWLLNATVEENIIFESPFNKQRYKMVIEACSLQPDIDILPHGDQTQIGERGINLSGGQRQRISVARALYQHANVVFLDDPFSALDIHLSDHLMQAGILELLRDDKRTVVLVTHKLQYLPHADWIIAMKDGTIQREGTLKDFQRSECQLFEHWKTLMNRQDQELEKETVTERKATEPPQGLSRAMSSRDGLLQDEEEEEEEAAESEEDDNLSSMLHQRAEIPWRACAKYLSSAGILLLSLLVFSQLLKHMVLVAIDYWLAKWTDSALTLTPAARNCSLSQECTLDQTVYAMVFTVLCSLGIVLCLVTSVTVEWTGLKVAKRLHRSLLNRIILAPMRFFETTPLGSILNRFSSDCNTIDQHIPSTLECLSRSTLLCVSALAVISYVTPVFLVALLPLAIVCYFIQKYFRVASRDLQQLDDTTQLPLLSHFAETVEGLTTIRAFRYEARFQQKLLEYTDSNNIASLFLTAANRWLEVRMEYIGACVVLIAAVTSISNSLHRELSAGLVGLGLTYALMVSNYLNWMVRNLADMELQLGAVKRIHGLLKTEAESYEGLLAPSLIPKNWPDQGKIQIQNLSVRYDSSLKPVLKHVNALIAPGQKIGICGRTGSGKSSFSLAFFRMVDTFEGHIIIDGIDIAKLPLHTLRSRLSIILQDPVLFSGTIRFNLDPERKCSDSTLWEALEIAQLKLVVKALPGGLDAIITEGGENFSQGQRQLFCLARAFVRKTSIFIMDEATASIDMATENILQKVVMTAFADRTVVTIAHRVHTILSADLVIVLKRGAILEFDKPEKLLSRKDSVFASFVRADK
T3 sequence (Q09428 whole entry K205E partner, one chain of several): as the sequence (Q09428 whole entry K205A partner, one chain of several) above, with A205E counted along it

SMILES: Nc1ncnc2c1ncn2[C@@H]1O[C@H](COP(=O)(O)OP(=O)(O)OP(=O)(O)O)[C@H]2OC3(O[C@H]21)C([N+](=O)[O-])=CC(=[N+]([O-])[O-])C=C3[N+](=O)[O-] (some centres unmarked) [TNP-ATP, trinitrophenyl-ATP]
- IC50 (Kir6.2-GFP (no SUR1); IC50 current inhibition): 273 µM and 275 µM
- h (Hill coefficient) current inhibition (Kir6.2-GFP (no SUR1)): 1.09
- h (Hill coefficient) fluorescence quenching (Kir6.2*-GFP + SUR-K205A): 0.73
- Emax (Kir6.2*-GFP + SUR-K205A; fraction): 100%
- EC50 (Kir6.2*-GFP + SUR-K205A; n = 9): 204 µM
- h (Hill coefficient) fluorescence quenching (Kir6.2*-GFP + SUR-K205E): 0.74
- Emax (Kir6.2*-GFP + SUR-K205E; fraction): 100%
- EC50 (Kir6.2*-GFP + SUR-K205E; n = 9): 427 µM
